Source: ChEMBL document CHEMBL4130359, “Indazole-based ligands for estrogen-related receptor α as potential anti-diabetic agents” (Eur J Med Chem, 2017)
Calls of active or inactive are those of the source. No cut-off for these calls is given here.

Experiments:
[1] = target: T1, Peroxisome proliferator-activated receptor delta (Homo sapiens, UniProt Q03181); experiment: Agonist activity at recombinant GST-tagged human PPARdelta LBD assessed as fluorescein-labeled coactivator peptide recruitment preincubated with enzyme followed by coactivator addition by LanthaScreen TR-FRET assay
[2] = AUC (0 to 24 hrs) in […] model at 3 mg/kg, po qd for 28 days measured on day 28 post last dose; format: ADME, organism-based; parameters: dose 3 mg/kg, time < 24 hr, route oral; details: in vivo
[3] = system: Rattus norvegicus; experiment: Effect on IGFBP4 gene expression in epididymal white adipose tissue of Zucker rat sub-chronic fa/fa prediabetic model at 10 mg/kg, po qd for 15 days by microarray analysis relative to control; format: functional
[4] = organism: Homo sapiens; experiment: Inhibition of picrotoxin binding to chloride channel (unknown origin) at 10 uM relative to control
[5] = system: Rattus norvegicus; experiment: Toxicity in Zucker rat sub-chronic fa/fa prediabetic model assessed as liver weight at 1 mg/kg, po qd for 31 days measured on day 32 (reference value: 28 +/- 1.6 g); format: organism-based; details: in vivo, 744 h
[6] = system: Rattus norvegicus; experiment: Effect on ADRA2C gene expression in epididymal white adipose tissue of Zucker rat sub-chronic fa/fa prediabetic model at 10 mg/kg, po qd for 15 days by microarray analysis relative to control; format: functional
[7] = system: Rattus norvegicus; experiment: Effect on HMGCS2 gene expression in epididymal white adipose tissue of Zucker rat sub-chronic fa/fa prediabetic model at 10 mg/kg, po qd for 15 days by microarray analysis relative to control; format: functional
[8] = system: Rattus norvegicus; experiment: Effect on PRDX3 gene expression in epididymal white adipose tissue of Zucker rat sub-chronic fa/fa prediabetic model at 10 mg/kg, po qd for 15 days by microarray analysis relative to control; format: functional
[9] = system: Rattus norvegicus; experiment: Antidiabetic activity in […] model assessed as HbA1C level at 50 mg/kg, po qd for 31 days measured on day 32 post dose (reference value: 5.9 +/- 0.18%); format: functional
[10] = system: Rattus norvegicus; experiment: Toxicity in […] model assessed as serum cholesterol level at 10 mg/kg, po qd for 31 days measured on day 32 (reference value: 195 +/- 5.5 mg/dl); format: organism-based; details: in vivo, 744 h
[11] = system: Rattus norvegicus; experiment: Antidiabetic activity in Zucker rat sub-chronic fa/fa prediabetic model assessed as fasting blood insulin level at 3 mg/kg, po qd for 31 days measured on day 29 post dose (reference value: 8.5 +/- 1.4 ug/L); format: functional
[12] = system: Rattus norvegicus; experiment: Antidiabetic activity in po dosed Zucker rat chronic ob/ob model assessed as reduction in blood glucose AUC (0 to 120 min) administered once daily for 31 days measured on day 28 post dose by OGTT; format: functional, organism-based
[13] = AUC (0 to 24 hrs) in […] model at 50 mg/kg, po qd measured on day 1 post dose; format: ADME, organism-based; parameters: dose 50 mg/kg, time < 24 hr, route oral; details: in vivo
[14] = system: Rattus norvegicus; experiment: Toxicity in Zucker rat sub-chronic fa/fa prediabetic model assessed as effect on liver enzymes at 10 mg/kg, po qd during 10 days study; format: organism-based; details: in vivo, 240 h
[15] = system: Rattus norvegicus; experiment: Effect on TGFB1 gene expression in epididymal white adipose tissue of Zucker rat sub-chronic fa/fa prediabetic model at 10 mg/kg, po qd for 15 days by microarray analysis relative to control; format: functional
[16] = system: Rattus norvegicus; experiment: Toxicity in Zucker rat sub-chronic fa/fa prediabetic model assessed as liver weight at 10 mg/kg, po qd for 31 days measured on day 32 (reference value: 28 +/- 1.6 g); format: organism-based; details: in vivo, 744 h
[17] = system: Rattus norvegicus; experiment: Toxicity in […] chronic ob/ob model assessed as epididymal white adipose tissue weight at 50 mg/kg, po qd for 31 days measured on day 32 (reference value: 3.92 +/- 0.14 g); format: organism-based; details: in vivo, 744 h
[18] = system: Rattus norvegicus; experiment: Antidiabetic activity in Zucker rat sub-chronic fa/fa prediabetic model assessed as increase in serum adiponectin level at 50 mg/kg, po qd for 4 days by ELISA relative to control; format: functional
[19] = Drug uptake in muscle of Zucker rat sub-chronic fa/fa prediabetic model at 12.5 mg/kg, po qd for 11 days; format: ADME, organism-based, Muscle tissue; details: read-out: Drug uptake
[20] = Oral bioavailability in Sprague-Dawley rat at 10 mg/kg administered via gavage by LC-MS analysis; format: ADME, organism-based; details: in vivo
[21] = system: Rattus norvegicus; experiment: Toxicity in Zucker rat sub-chronic fa/fa prediabetic model assessed as insulin level per gram pancreas at 3 mg/kg, po qd for 31 days measured on day 32 (reference value: 55.2 +/- 5.5 ug); format: organism-based; details: in vivo, 744 h
[22] = Cmax in […] chronic ob/ob model at 3 mg/kg, po qd for 28 days measured on day 28 post last dose; format: ADME, organism-based; parameters: dose 3 mg/kg, route oral; details: in vivo
[23] = system: Rattus norvegicus; experiment: Effect on STAT3 gene expression in epididymal white adipose tissue of Zucker rat sub-chronic fa/fa prediabetic model at 10 mg/kg, po qd for 15 days by microarray analysis relative to control; format: functional
[24] = system: Rattus norvegicus; experiment: Increase in ACADM mRNA expression in epididymal white adipose tissue of Zucker rat sub-chronic fa/fa prediabetic model at 10 mg/kg, po qd for 15 days by RT-PCR method; format: functional, organism-based
[25] = system: Rattus norvegicus; experiment: Toxicity in Zucker rat sub-chronic fa/fa prediabetic model assessed as body weight at 10 mg/kg, po qd for 29 days measured on day 29 post last dose (reference value: 533 +/- 10 g); format: organism-based; details: in vivo, 696 h
[26] = target: T1, Peroxisome proliferator-activated receptor delta; experiment: Antagonist activity at recombinant GST-tagged human PPARdelta LBD assessed as inhibition of GW0742-induced fluorescein-labeled coactivator peptide recruitment preincubated with enzyme followed by coactivator addition by LanthaScreen TR-FRET assay
[27] = system: Rattus norvegicus; experiment: Toxicity in Zucker rat sub-chronic fa/fa prediabetic model assessed as body weight at 50 mg/kg, po qd for 29 days measured on day 29 post last dose (reference value: 533 +/- 10 g); format: organism-based; details: in vivo, 696 h
[28] = AUC (0 to 24 hrs) in Zucker rat sub-chronic fa/fa prediabetic model at 1 mg/kg, po qd measured on day 1 post dose; format: ADME, organism-based; parameters: time < 24 hr, dose 1 mg/kg, route oral; details: in vivo
[29] = system: Rattus norvegicus; experiment: Effect on NDUFV2 gene expression in epididymal white adipose tissue of Zucker rat sub-chronic fa/fa prediabetic model at 10 mg/kg, po qd for 15 days by microarray analysis relative to control; format: functional
[30] = system: Rattus norvegicus; experiment: Antidiabetic activity in Zucker rat sub-chronic fa/fa prediabetic model assessed as fasting blood insulin level at 1 mg/kg, po qd for 31 days measured on day 29 post dose (reference value: 8.5 +/- 1.4 ug/L); format: functional
[31] = system: Rattus norvegicus; experiment: Toxicity in Zucker rat sub-chronic fa/fa prediabetic model assessed as heart weight at 3 mg/kg, po qd for 31 days measured on day 32 (reference value: 1.19 +/- 0.04 g); format: organism-based; details: in vivo, 744 h
[32] = system: Rattus norvegicus; experiment: Effect on IL1RL1 gene expression in epididymal white adipose tissue of Zucker rat sub-chronic fa/fa prediabetic model at 10 mg/kg, po qd for 15 days by microarray analysis relative to control; format: functional
[33] = AUC (0 to 24 hrs) in […] model at 10 mg/kg, po qd measured on day 1 post dose; format: ADME, organism-based; parameters: dose 10 mg/kg, time < 24 hr, route oral; details: in vivo
[34] = system: Rattus norvegicus; experiment: Effect on CTGF gene expression in epididymal white adipose tissue of Zucker rat sub-chronic fa/fa prediabetic model at 10 mg/kg, po qd for 15 days by microarray analysis relative to control; format: functional

T1 sequence (Q03181 whole entry, the tested form may be a part): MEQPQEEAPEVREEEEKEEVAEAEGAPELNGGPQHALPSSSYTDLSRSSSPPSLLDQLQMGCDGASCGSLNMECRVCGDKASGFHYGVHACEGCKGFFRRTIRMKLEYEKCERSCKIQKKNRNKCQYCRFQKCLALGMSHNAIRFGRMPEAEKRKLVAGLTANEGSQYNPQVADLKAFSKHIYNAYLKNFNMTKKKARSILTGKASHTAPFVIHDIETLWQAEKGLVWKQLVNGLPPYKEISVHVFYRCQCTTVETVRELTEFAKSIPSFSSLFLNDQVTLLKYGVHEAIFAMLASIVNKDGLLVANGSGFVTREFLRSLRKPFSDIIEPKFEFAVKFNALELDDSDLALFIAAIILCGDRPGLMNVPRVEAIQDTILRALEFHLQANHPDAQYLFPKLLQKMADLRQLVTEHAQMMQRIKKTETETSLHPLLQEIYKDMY

CN1CC[C@@H](N2C(=O)S/C(=C\c3ccc4c(cnn4Cc4ccc(Cl)cc4C(F)(F)F)c3)C2=O)[C@H](F)C1
EC50 [1]: > 10 µM | AUC at 24 h [2]: 2150 ng·h/mL | fold change (FC) [3]: -1.825 | inhibition [4]: 50% | Activity [5]: 21.9 g | fold change (FC) [6]: -1.52 | fold change (FC) [7]: -1.488 | fold change (FC) [8]: 1.559 | Activity [9]: 5% | Activity [10]: 164 mg/dL | Activity [11]: 4.8 µg/L | Activity [12]: Dose-dependent effect | AUC(0-t) at 24 h [13]: 16900 ng·h/mL | Activity [14]: Non-Toxic | fold change (FC) [15]: -1.47 | Activity [16]: 18.5 g | Activity [17]: 2.95 g | fold change (FC) [18]: 1.9 | concentration at 264 h [19]: 2820 ng/g | bioavailability [20]: 84% | Activity [21]: 90.7 µg | Cmax [22]: 223 ng/mL | fold change (FC) [23]: -1.405 | Activity [24]: Active | Activity [25]: 551 g | IC50 [26]: > 10 µM | Activity [27]: 557 g | AUC(0-t) at 24 h [28]: 1760 ng·h/mL | fold change (FC) [29]: 1.44 | Activity [30]: 5 µg/L | Activity [31]: 1.15 g | fold change (FC) [32]: -2.752 | AUC(0-t) at 24 h [33]: 3940 ng·h/mL | fold change (FC) [34]: 1.458
